Test results: article PMC6985185 (Breast cancer research and treatment, 2019)
“And” between values parts separate entries of the source, which are not always exact repeats. Equal values may be shown once.

Legend:
[1] = system: breast cancer; conditions: 250 mg monthly; patients that had already progressed during AI treatment; cited from earlier work
[2] = Circulating plasma levels of fulvestrant after a single injection (LC/MS/MS); type: in vivo, Nu:J mice; conditions: single injection of 25 or 200 mg/kg; plasma collected 1, 3, 5, or 7 days after administration
[3] = target: T1, estrogen receptor (ER) (Homo sapiens, UniProt P03372); experiment: Immunoblot of ER levels in TamR tumors, Study 1; conditions: 28 days of treatment
T1 sequence (P03372 1-595): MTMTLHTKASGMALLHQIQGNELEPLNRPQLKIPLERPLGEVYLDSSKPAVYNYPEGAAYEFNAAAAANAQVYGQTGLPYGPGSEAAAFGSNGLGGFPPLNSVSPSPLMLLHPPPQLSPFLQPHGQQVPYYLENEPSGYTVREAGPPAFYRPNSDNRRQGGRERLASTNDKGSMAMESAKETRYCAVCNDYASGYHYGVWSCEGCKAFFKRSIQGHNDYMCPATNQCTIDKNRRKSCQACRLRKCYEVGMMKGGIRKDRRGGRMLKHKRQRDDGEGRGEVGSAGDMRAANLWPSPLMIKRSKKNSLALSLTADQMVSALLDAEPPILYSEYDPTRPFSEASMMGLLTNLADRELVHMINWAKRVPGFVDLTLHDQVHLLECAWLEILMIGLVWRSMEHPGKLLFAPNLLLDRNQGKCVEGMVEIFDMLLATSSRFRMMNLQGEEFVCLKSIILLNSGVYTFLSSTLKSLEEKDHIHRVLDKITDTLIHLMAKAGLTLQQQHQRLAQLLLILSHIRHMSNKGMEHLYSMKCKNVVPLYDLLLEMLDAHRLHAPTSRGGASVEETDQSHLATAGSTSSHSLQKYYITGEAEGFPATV

[4] = system: ER target genes AGR2, AGR3, and KRT13; experiment: RT-qPCR of tamoxifen responsive ER target genes in TamR tumors; type: in vivo, Nu:J mice
[5] = system: HCC1428 breast cancer xenograft tumors; experiment: HCC1428 Study: growth of estrogen dependent xenograft tumors; type: in vivo, Nu:J mice; conditions: 25 mg/kg sc qw, 4 weeks; ovariectomized mice receiving oral estradiol
[6] = system: ER; conditions: months of treatment with originally approved 250 mg/month regimen; cited from earlier work
[7] = system: breast cancer; conditions: 500 vs 250 mg/month, loading regimen 500 mg on d1, d14, d29; cited from earlier work
[8] = Circulating plasma levels of fulvestrant at euthanasia, TamR Study 1 (LC/MS/MS); type: in vivo, Nu:J mice; conditions: female, Nu/J, mouse, subcutaneous
[9] = system: uterus; experiment: Uterine wet weight in LTED tumor bearing mice; type: in vivo, Nu:J mice; conditions: ovariectomized LTED tumor bearing mice, after 4 weeks of treatment at the LTED study doses
[10] = system: TamR (tamoxifen resistant) xenograft tumors; experiment: TamR Study 1: growth of tamoxifen-resistant xenograft tumors under fulvestrant; type: in vivo, Nu:J mice
[11] = target: T1, estrogen receptor (ER); experiment: Immunoblot of ER levels in HCC1428 tumors; conditions: 25 mg/kg sc qw, 4 weeks
[12] = current clinical protocol; cited from earlier work
[13] = all doses administered (25-200 mg/kg)

C[C@]12CC[C@@H]3c4ccc(O)cc4C[C@@H](CCCCCCCCC[S+]([O-])CCCC(F)(F)C(F)(F)F)[C@H]3[C@@H]1CC[C@@H]2O (stereo partly shown) [Fulvestrant, fulvestrant]
Response rate in the EFFECT trial [1]: 7.4% | Time of highest plasma level after single injection [2]: highest levels detected one day after administration | ER downregulation in TamR tumors (immunoblot) ([3]; 25 mg/kg dose): did not result in significant ER downregulation | ER downregulation in TamR tumors (immunoblot) ([3]; 50, 100, and 200 mg/kg doses): Significant (p < 0.001) downregulation of ER | mRNA expression of anterior gradient protein 3 (AGR3) in TamR tumors [4, 13]: dramatic downregulation | mRNA expression of keratin 13 (KRT13) in TamR tumors [4, 13]: dramatic downregulation | mRNA expression of AGR2 in TamR tumors ([4]; only for doses that resulted in quantitative downregulation of ER protein): modest reduction in AGR2 expression | Effect on HCC1428 xenograft tumor growth [5]: Tumor stasis | Patients exhibiting intratumoral [(18)F]fluoroestradiol (FES) binding during follow up PET scans [6]: 30% | Clinical response to higher dose with loading regimen [7]: improved response rate and increased time to progression | concentration at 7 days after final dose ([8]; 25 mg/kg): 34.6 ng/mL and 57 nM | concentration at 7 days after final dose ([8]; 50 mg/kg): 64.9 ng/mL and 107 nM | concentration at 7 days after final dose ([8]; 100 mg/kg): 95.6 ng/mL and 157 nM | concentration at 7 days after final dose ([8]; 200 mg/kg): 207 ng/mL and 340 nM | Uterine wet weight (measure of uterine stimulation) [9]: non-significant trend toward reduced uterine weight | Inhibition of TamR tumor growth vs vehicle control ([10]; 4 weekly injections of 25, 50, 100, or 200 mg/kg (all doses), no significant differences between doses): significant inhibition of tumor growth | % tumor growth inhibition of TamR tumors ([10]; fulvestrant 25 mg/kg sc weekly, day 0 of treatment): −1% | % tumor growth inhibition of TamR tumors ([10]; fulvestrant 25 mg/kg sc weekly, day 2 of treatment): 25% | % tumor growth inhibition of TamR tumors ([10]; fulvestrant 25 mg/kg sc weekly, day 4 of treatment): 20% | % tumor growth inhibition of TamR tumors ([10]; fulvestrant 25 mg/kg sc weekly, day 7 of treatment): 21% | % tumor growth inhibition of TamR tumors ([10]; fulvestrant 25 mg/kg sc weekly, day 9 of treatment): 18% | % tumor growth inhibition of TamR tumors ([10]; fulvestrant 25 mg/kg sc weekly, day 11 of treatment): 24% | % tumor growth inhibition of TamR tumors ([10]; fulvestrant 25 mg/kg sc weekly, day 14 of treatment): 33% | % tumor growth inhibition of TamR tumors ([10]; fulvestrant 25 mg/kg sc weekly, day 16 of treatment): 29% | % tumor growth inhibition of TamR tumors ([10]; fulvestrant 25 mg/kg sc weekly, day 18 of treatment): 39% | % tumor growth inhibition of TamR tumors ([10]; fulvestrant 25 mg/kg sc weekly, day 21 of treatment): 44% | % tumor growth inhibition of TamR tumors ([10]; fulvestrant 25 mg/kg sc weekly, day 23 of treatment): 45% | % tumor growth inhibition of TamR tumors ([10]; fulvestrant 25 mg/kg sc weekly, day 25 of treatment): 47% | % tumor growth inhibition of TamR tumors ([10]; fulvestrant 25 mg/kg sc weekly, day 28 of treatment): 47% | % tumor growth inhibition of TamR tumors ([10]; fulvestrant 50 mg/kg sc weekly, day 0 of treatment): −1% | % tumor growth inhibition of TamR tumors ([10]; fulvestrant 50 mg/kg sc weekly, day 2 of treatment): 24% | % tumor growth inhibition of TamR tumors ([10]; fulvestrant 50 mg/kg sc weekly, day 4 of treatment): 20% | % tumor growth inhibition of TamR tumors ([10]; fulvestrant 50 mg/kg sc weekly, day 7 of treatment): 26% | % tumor growth inhibition of TamR tumors ([10]; fulvestrant 50 mg/kg sc weekly, day 9 of treatment): 28% | % tumor growth inhibition of TamR tumors ([10]; fulvestrant 50 mg/kg sc weekly, day 11 of treatment): 31% | % tumor growth inhibition of TamR tumors ([10]; fulvestrant 50 mg/kg sc weekly, day 14 of treatment): 37% | % tumor growth inhibition of TamR tumors ([10]; fulvestrant 50 mg/kg sc weekly, day 16 of treatment): 40% | % tumor growth inhibition of TamR tumors ([10]; fulvestrant 50 mg/kg sc weekly, day 18 of treatment): 44% | % tumor growth inhibition of TamR tumors ([10]; fulvestrant 50 mg/kg sc weekly, day 21 of treatment): 51% | % tumor growth inhibition of TamR tumors ([10]; fulvestrant 50 mg/kg sc weekly, day 23 of treatment): 58% | % tumor growth inhibition of TamR tumors ([10]; fulvestrant 50 mg/kg sc weekly, day 25 of treatment): 59% | % tumor growth inhibition of TamR tumors ([10]; fulvestrant 50 mg/kg sc weekly, day 28 of treatment): 62% | % tumor growth inhibition of TamR tumors ([10]; fulvestrant 100 mg/kg sc weekly, day 0 of treatment): −3% | % tumor growth inhibition of TamR tumors ([10]; fulvestrant 100 mg/kg sc weekly, day 2 of treatment): 23% | % tumor growth inhibition of TamR tumors ([10]; fulvestrant 100 mg/kg sc weekly, day 4 of treatment): 20% | % tumor growth inhibition of TamR tumors ([10]; fulvestrant 100 mg/kg sc weekly, day 7 of treatment): 27% | % tumor growth inhibition of TamR tumors ([10]; fulvestrant 100 mg/kg sc weekly, day 9 of treatment): 16% | % tumor growth inhibition of TamR tumors ([10]; fulvestrant 100 mg/kg sc weekly, day 11 of treatment): 32% | % tumor growth inhibition of TamR tumors ([10]; fulvestrant 100 mg/kg sc weekly, day 14 of treatment): 44% | % tumor growth inhibition of TamR tumors ([10]; fulvestrant 100 mg/kg sc weekly, day 16 of treatment): 36% | % tumor growth inhibition of TamR tumors ([10]; fulvestrant 100 mg/kg sc weekly, day 18 of treatment): 50% | % tumor growth inhibition of TamR tumors ([10]; fulvestrant 100 mg/kg sc weekly, day 21 of treatment): 46% | % tumor growth inhibition of TamR tumors ([10]; fulvestrant 100 mg/kg sc weekly, day 23 of treatment): 53% | % tumor growth inhibition of TamR tumors ([10]; fulvestrant 100 mg/kg sc weekly, day 25 of treatment): 49% | % tumor growth inhibition of TamR tumors ([10]; fulvestrant 100 mg/kg sc weekly, day 28 of treatment): 58% | % tumor growth inhibition of TamR tumors ([10]; fulvestrant 200 mg/kg sc weekly, day 0 of treatment): 2% | % tumor growth inhibition of TamR tumors ([10]; fulvestrant 200 mg/kg sc weekly, day 2 of treatment): 28% | % tumor growth inhibition of TamR tumors ([10]; fulvestrant 200 mg/kg sc weekly, day 4 of treatment): 24% | % tumor growth inhibition of TamR tumors ([10]; fulvestrant 200 mg/kg sc weekly, day 7 of treatment): 24% | % tumor growth inhibition of TamR tumors ([10]; fulvestrant 200 mg/kg sc weekly, day 9 of treatment): 25% | % tumor growth inhibition of TamR tumors ([10]; fulvestrant 200 mg/kg sc weekly, day 11 of treatment): 39% | % tumor growth inhibition of TamR tumors ([10]; fulvestrant 200 mg/kg sc weekly, day 14 of treatment): 47% | % tumor growth inhibition of TamR tumors ([10]; fulvestrant 200 mg/kg sc weekly, day 16 of treatment): 48% | % tumor growth inhibition of TamR tumors ([10]; fulvestrant 200 mg/kg sc weekly, day 18 of treatment): 53% | % tumor growth inhibition of TamR tumors ([10]; fulvestrant 200 mg/kg sc weekly, day 21 of treatment): 61% | % tumor growth inhibition of TamR tumors ([10]; fulvestrant 200 mg/kg sc weekly, day 23 of treatment): 66% | % tumor growth inhibition of TamR tumors ([10]; fulvestrant 200 mg/kg sc weekly, day 25 of treatment): 67% | % tumor growth inhibition of TamR tumors ([10]; fulvestrant 200 mg/kg sc weekly, day 28 of treatment): 74% | ER expression in HCC1428 tumors (western blotting) [11]: modest but significant downregulation of ER expression | Cmax observed per current protocol in patients [12]: ~28 ng/mL
